These results are taken from paper PMC6906431, “Selective small molecule PARG inhibitor causes replication fork stalling and cancer cell death” (Nature Communications, 2019).

Each structure is given as a SMILES string. Values joined by “and” are separate entries in the source; they are usually repeats but may differ in a detail not shown here. Equal values may be shown once.

Data set [1] has as its system PC3 cells. As to the kind of experiment: Clonogenic survival assay. The settings on record: PC3. It counts as cell-based, human. The protocol: (§1) Fig. 6 Selective inhibition of PARG by xanthine derivative JA2131. a Clonogenic survival assays of PC3, MDA-MB-231, and MCF-7 cells treated with PARGi. Cells were treated with either DMSO or 10 µM JA2131 for 2 h, irradiated with 3 Gy (MDA-MB-231 and MCF-7), 7 Gy (PC3) IR and grown for ~2 weeks, then colonies were fixed with methanol and stained with crystal violet. The results of three independent experiments are shown. Error bars = the standard error of the mean (SEM). b dose-response of JA2131 in MDA-MB-231 cells with and without IR. Cells were treated with designated concentrations of JA2131 for 2 h and then either left untreated or exposed to 3 Gy IR and allowed to recover for 1 h before lysis. Total protein was immunoblotted with anti-PAR antibody (upper panel), stripped and reprobed with anti-PCNA as a loading control. c MDA-MB-231 cells with stable scrambled shRNA (WT) or stable PARG shRNA, knockdown (KD), were treated with 5 μM JA2131 for 2 h, lysed and then total lysates were immunoblotted for anti-PAR (upper panel) followed by anti-PARG (upper middle panel), anti-PARP1 (lower middle panel) and anti-actin (bottom panel) antibody. […] Stable cells with scramble shRNA (control) and shPARG (PARG-KD) cells were treated with an increasing concentration of JA2131 for growth inhibitory IC50 determination. The data was normalized against 100% survival at the lowest inhibitor concentration. Error bars show the percent coefficient of variation. Equivalent concentrations of DMSO were used as a negative control. e The cytotoxicity of JA2131 along with PDD, Veliparib and Doxorubicin against MRC-5 cells. Error bars show the percent coefficient of variation. f CETSA for in-cell JA2131 target engagement. Normalized anti-PARG western blot intensities of three independent experiments were fitted as above and the estimated aggregation temperature (Tagg) is shown in the tabulated insert. Source Data are provided as a Source Data file.
(§2) PC3, MDA-MB-231 cells were maintained in RPMI 1640, MCF-7 cells in Eagle’s Minimum Essential Medium (EMEM), MRC-5 cells in Eagle’s Minimum Essential Medium and Hela and U2OS cells in Dulbecco’s modified Eagle’s high glucose medium (DMEM) supplemented with 10% (vol/vol) fetal bovine serum (FBS) and 1% antibiotic/antimycotic (Lonza) in a humidified incubator with 10% CO2. All cell lines were purchased from ATCC and regularly checked for mycoplasma and cell authentication. SUM 149PT cells were cultured in F-12 Hams (Gibco) supplemented with 5% fetal bovine serum, insulin, and hydrocortisone. Colony formation assays were carried out in 6-well plates, 500 cells were used per well and following designated treatment, and colonies were grown for 2 weeks. Cells were fixed with methanol (100%), stained with crystal violet and analyzed using a GelCount instrument (Oxford Optronix Ltd). Crystal Violet C6158 was purchased from Sigma. PARG knockdown cells were generated by infecting MDA-MB-231 cells with shPARG lentiviral particles (sc-106355-V, Santa Cruz Biotechnology), which contain a pool of three shRNA plasmids. After 24 h infection, 3 µg/ml puromycin (Invitrogen) was added and antibiotic-resistant cells were further expanded and used for experimentation. Sequence-1; hairpin sequence: […], sense: […]tt, Antisense: […]tt. Sequence-2; hairpin sequence, […]-[…], sense: […]tt, antisense: […]tt. Sequence-3; hairpin sequence: […]-[…], sense: […]tt, antisense: […]-GGUUUCCtt. Control cells were generated using the same process except that scramble lentiviral particles with scrambled sequences were used (sc-108080).
(§3) Supplementary Fig. 8: Clonogenic survival of cells in the presence of PARGi and PARPi (a)
(§4) Clonogenic survival of PC3 cells in response to indicated compounds. ( b) Clonogenic survival of
(§5) MDA-MB-231 cells in response to i ndicated compounds. (c) Clonogenic survival of MCF -7 cells
(§6) in response to indicated compounds. […]

The subject of another data set is MCF-7 cells. The experiment in a line: Clonogenic survival assay. The class given is cell-based, human. The protocol: as §1, §2, §3, §4, §5, §6
Data set [2] deals with PC3 cells. As to the kind of experiment: Sulforhodamine B (SRB) cytotoxicity assay. The settings on record: 72 h, without IR. (In general: The SRB assay estimates cell density from bound dye.)
The test system of another data set is A172 glioblastoma cells. As to the kind of experiment: Sulforhodamine B (SRB) cytotoxicity assay. As to the method:
(§7) Normalized % viabilities are plotted against log concentration. Error bars show the percent coefficient of variation. […] Mann-Whitney test was used to generate the p-value. The DNA spread assay is the representation of two independently repeated experiments. Source Data are provided as a Source Data file.
(§8) Cells were plated in 96-well plates, treated as designated in reduced 5% FBS and fixed with trichloroacetic acid after 72 h, as previously described by[43]. […] Colorimetric or fluorescence analysis was performed in a FlexStation 3, using SoftMax Pro 7.0, Molecular Devices. Normalized graphs were generated with Prism 8 software, non-linear 4-parameter data fitting was performed for IC50 calculation.

Data set [3] in a line: Sulforhodamine B (SRB) cytotoxicity assay. Conditions: human, MRC-5 cells. It counts as cell-based, human. As to the method: as §1
A short description of data set [4]: Sulforhodamine B (SRB) cytotoxicity assay. The settings on record: human, A172 glioblastoma cells. As to the method:
as §7, §8

For the molecule `Cn1c(=S)c2[nH]c(SCCN3CCOCC3)nc2n(C)c1=O` [JA-2131], the “colony count (clonogenic survival, raw replicate data, Supplementary Figure 8)” value in the data set with PC3 cells [1] (Experiment-1, replicates 1-6) was 191 and 210 and 213 and 170 and 222 and 223; in the data set on PC3 cells [1] (Experiment-2, replicates 1-6), 174 and 164 and 144 and 181 and 152 and 125; in the data set with PC3 cells [1] (Experiment-3, replicates 1-6), 164 and 128 and 108 and 141 and 148 and 123; in the data set on MCF-7 cells (Experiment-1, replicates 1-6), 184 and 217 and 183 and 124 and 178 and 153; with MCF-7 cells (Experiment-2, replicates 1-6) it was 141 and 190 (2×) and 218 and 209 and 269; in the data set with MCF-7 cells (Experiment-3, replicates 1-6) it was 154 and 188 and 126 and 153 and 169 and 142.
The IC50 is the point on the concentration scale where inhibition reaches its midpoint. `[NH2][Pt]1([NH2])[O]CC(=O)[O]1` [Nedaplatin]: the half-inhibitory concentration (IC50) with PC3 cells [2] was 4.98 ± 0.2 µM; with A172 glioblastoma cells (72 h) it was 67.6 ± 46.5 µM. Also, the Viability came out at 99.072% in the data set on PC3 cells [2] (log [concentration] μM 0.291); 89.849% in the data set with PC3 cells [2] (log [concentration] μM 0.592); 9.664% with PC3 cells [2] (log [concentration] μM 0.893); 8.121% in the data set on PC3 cells [2] (log [concentration] μM 1.194); 6.671% in the data set on PC3 cells [2] (log [concentration] μM 1.495); 7.309% with PC3 cells [2] (log [concentration] μM 1.796). For the same molecule, the Viability was determined as 100% in the data set with PC3 cells [2] (log [concentration] μM -0.01); 99.176% in the data set with A172 glioblastoma cells (72 h, log [concentration] μM 0.291); 95.055% in the data set on A172 glioblastoma cells (72 h, log [concentration] μM 0.592); 88.736% with A172 glioblastoma cells (72 h, log [concentration] μM 0.893); 69.505% with A172 glioblastoma cells (72 h, log [concentration] μM 1.495); 60.165% in the data set with A172 glioblastoma cells (72 h, log [concentration] μM 1.796). Moreover, the Viability with A172 glioblastoma cells (72 h, log [concentration] μM 2.097) is 45.055%; in the data set on A172 glioblastoma cells (72 h, log [concentration] μM 2.398), 21.154%; with A172 glioblastoma cells (72 h, log [concentration] μM 2.699), 18.681%; with A172 glioblastoma cells (72 h, log [concentration] μM 3) it was 18.681%; with A172 glioblastoma cells (72 h, log [concentration] μM -0.01) it was 107.967%; in the data set with A172 glioblastoma cells (72 h, log [concentration] μM -0.312), 100%.
Usually viability stands for a read-out of living cells in per cent, often relative to untreated cells. On to `C[C@]1(c2nc3c(C(N)=O)cccc3[nH]2)CCCN1` [Veliparib], for which, in data set [3] (log [concentration] μM 0.29), the viability at 72 h, 1.95 µM turned out to be 90.5%. In data set [3] (log [concentration] μM 0.59), the viability at 72 h, 3.89 µM turned out to be 94.5%. Moreover, the viability at 72 h, 7.76 µM in data set [3] (log [concentration] μM 0.89) is 86%. For the same molecule, the viability at 72 h, 15.5 µM in data set [3] (log [concentration] μM 1.19) came out at 85.3%. Besides, the viability at 72 h, 30.9 µM in data set [3] (log [concentration] μM 1.49) was 89%. Also, the viability at 72 h, 63.1 µM in data set [3] (log [concentration] μM 1.8) was 77.6%. Also, the viability at 72 h, 126 µM in data set [3] (log [concentration] μM 2.1) stood at 70.3%. Further, in data set [3] (log [concentration] μM 2.4), the viability at 72 h, 251 µM was 58.2%. Besides, the viability at 72 h, 501 µM in data set [3] (log [concentration] μM 2.7) stood at 34.2%. Further, the viability at 72 h, 0.977 µM in data set [3] (log [concentration] μM -0.01) turned out to be 89.2%. Also, the viability at 72 h, 0.49 µM in data set [3] (log [concentration] μM -0.31) was 90.8%. Moreover, in data set [3] (log [concentration] μM -0.61), the viability at 72 h, 0.245 µM turned out to be 100%. In addition, in data set [4], the viability at 72 h, 0.244 µM is 100%; the viability at 72 h, 0.488 µM stood at 104%; the viability at 72 h, 0.977 µM turned out to be 102%; the viability at 72 h, 1.95 µM turned out to be 106%. In addition, in data set [4], the viability at 72 h, 3.91 µM amounted to 101%; the viability at 72 h, 7.82 µM was found to be 104%; the viability at 72 h, 15.6 µM amounted to 98.6%; the viability at 72 h, 31.3 µM amounted to 94.1%. In data set [4], the viability at 72 h, 62.5 µM came to 88.5%; the viability at 72 h, 125 µM turned out to be 69.1%; the viability at 72 h, 250 µM amounted to 27.2%; the viability at 72 h, 500 µM is 15.4%. Besides, the IC50 with A172 glioblastoma cells (Homo sapiens, A 172, 72 h) amounted to 153 ± 44.2 µM.
